Measurements from article PMC11088877, “AMP-activated protein kinase can be allosterically activated by ADP but AMP remains the key activating ligand” (Biochemical Journal, 2024).
“And” between values parts separate entries of the source, which are not always exact repeats. Equal values may be shown once. Read-outs that look alike come from different tables or passages of the source.

Key:
[1] = biological target: T1, human α2β2γ1 complex, CBS4 mutant (I312G) (Homo sapiens, UniProt P54619+P54646, I312G); assay: AMPK inactivation and Thr172 dephosphorylation by PPM1A, CBS4 mutant; format: biochemical; conditions: 300 µM nucleotide, absence of ATP
T1 construct: made in house; host or cells: Escherichia coli
Protocol: The relative roles of the three CBS sites in the other two mechanisms of activation of AMPK by AMP or ADP, i.e. promotion of Thr172 phosphorylation by LKB1, and protection against Thr172 dephosphorylation by protein phosphatases, have not been examined previously. As expected, incubation of the α2β2γ1 AMPK complex with a fixed, limiting amount of purified LKB1:STRADα:MO25α complex in the presence of 200 µM Mg.ATP^2− caused a large degree of activation (Figure 5A) and phosphorylation (Figure 5B) of AMPK (unphosphorylated α2β2γ1 complex), which were stimulated more than 2-fold by 300 µM AMP and 1.6-fold by 300 µM ADP.
Figure 6. Effects of AMP or ADP on AMPK inactivation and Thr172 dephosphorylation by PP2Cα (PPM1A). Human α2β2γ1 complexes (WT, or with L129D/V130D, V276G/L277G or I312G mutations affecting CBS1, CBS3 or CBS4 respectively), all phosphorylated on Thr172, were incubated with a fixed concentration of PP2Cα (PPM1A) in the presence or absence of AMP or ADP (both 300 µM) as described in the Materials and methods section. After the incubation, aliquots were withdrawn for (A) AMPK assay or (B) Western blots. […] For (B), due to a limit on the number of lanes that could be run on one gel, single replicates from the triplicate assays were analysed. […]

[2] = biological target: T2, human α2β2γ1 complex (WT) (Homo sapiens, UniProt P54619+P54646); assay: Allosteric activation of WT human α2β2γ1 AMPK complex by AMP and ADP; format: biochemical
T2 construct: made in house; host or cells: Escherichia coli
Source text: To study allosteric activation with a more well-defined AMPK complex, and to study the effects of mutations in individual adenine nucleotide-binding sites on the γ subunit, we expressed a human α2β2γ1 complex in Escherichia coli and purified it utilizing the polyhistidine tag at the N-terminus of the α2 subunit. […] However, it had not been co-expressed with an N-myristoyl transferase so would not have been N-myristoylated on the β2 subunit. The complex was expressed not only with the WT γ1 sequence but also with mutations affecting hydrophobic residues previously shown to be involved in binding of the adenine moieties of nucleotides at CBS1 (L129D/V130D), CBS3 (V276G/L277G) and CBS4 (I312G). All four complexes co-purified as heterotrimeric 1:1:1 complexes as expected, and were phosphorylated and activated equally well either by CaMKK2 or the LKB1: STRADα:MO25α complex (Supplementary Figure S2). For the studies described below we phosphorylated Thr172 using a GST-tagged CaMKK2 and repurified AMPK using size exclusion chromatography and a glutathione-Sepharose column, which remove CaMKK2.
Figure 4. Allosteric activation of WT and mutant human α2β2γ1 AMPK complex by AMP and ADP at three different concentrations of ATP. The α2β2γ1 complex was phosphorylated on Thr172 prior to assay using CaMKK2. The γ1 subunit was either (A/E): WT; (B/F): a CBS1 mutant (L129D/V130D); (C/G): a CBS3 mutant (V276G/L277G); (D/H): a CBS4 mutant (I312G). Results are means of duplicate assays ± SD; error bars are not shown if they were smaller than the symbols used for mean values. Assays and curve fitting were as in Figure 1 at either 0.2 mM (left panels) or 5 mM (right panels) ATP. Best-fit values for all parameters used to generate the curves are listed in Supplementary Table S1.
Sources of antibodies were as described: pThr172 (AMPK-α: Cell Signaling Technologies, Danvers, MA, U.S.A., Cat# 2535), AMPK-α2 [22]. Rat liver AMPK was purified as described previously. Plasmid encoding human (His)6-tagged AMPK (α2β2γ1, bacterially expressed) generated as in [23], was a gift from AstraZeneca, Cambridge, U.K. The L129D/V130D (CBS1), V276G/L277G (CBS3) and I312G (CBS4) mutations in the α2β2γ1 complex were generated using the Quikchange II site-directed mutagenesis kit (Agilent Technologies) and confirmed by DNA sequencing. Human GST-tagged α2 kinase domain (1–310), LKB1:STRAD-α:MO25-α complexes, GST-tagged CaMKK2 [26], and PPM1A (PP2Cα) were produced as described. Bacterially expressed heterotrimers were activated by phosphorylation of Thr172 by GST-tagged CaMKK2 in the presence of ATP, and CaMKK2 was subsequently removed by passage through glutathione-Sepharose. Human GST-tagged α2 kinase domain was activated in a similar manner except that human (His)6-tagged LKB1:STRAD-α:MO25-α complex was used and removed after activation via passage through a His-Trap column. Recombinant human 5′-nucleotidase, CD73, Cat # 5795-EN-01, was from R&D systems (Minneapolis, MN, U.S.A.).
AMPK assays measured the transfer of radioactivity from [γ-^33P]ATP to a peptide substrate, which was separated from unreacted ATP by binding to P81 paper. This assay was described previously except that we used [γ-^33P] rather than [γ-^32P]ATP. In some assays (specified in Figure legends) the concentration of ATP was increased from 0.2 to 1 or 5 mM ATP, with MgCl2 concentrations maintained at a constant 4.8 mM excess above the concentration of ATP [19]. Where allosteric activation by AMP or ADP was being studied, we used the SAMS peptide as substrate. For all other assays the AMARA peptide was used.

T2 sequence (P54619 whole entry): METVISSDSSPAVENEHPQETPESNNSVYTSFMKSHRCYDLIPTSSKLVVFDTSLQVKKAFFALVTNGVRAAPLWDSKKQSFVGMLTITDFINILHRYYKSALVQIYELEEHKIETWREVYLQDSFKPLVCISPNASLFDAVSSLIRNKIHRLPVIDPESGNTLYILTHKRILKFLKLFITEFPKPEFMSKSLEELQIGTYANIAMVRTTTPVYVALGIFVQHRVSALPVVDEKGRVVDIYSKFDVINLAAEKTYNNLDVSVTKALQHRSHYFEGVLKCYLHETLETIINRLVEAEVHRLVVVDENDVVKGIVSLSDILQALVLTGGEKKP
T2 sequence (P54646 whole entry): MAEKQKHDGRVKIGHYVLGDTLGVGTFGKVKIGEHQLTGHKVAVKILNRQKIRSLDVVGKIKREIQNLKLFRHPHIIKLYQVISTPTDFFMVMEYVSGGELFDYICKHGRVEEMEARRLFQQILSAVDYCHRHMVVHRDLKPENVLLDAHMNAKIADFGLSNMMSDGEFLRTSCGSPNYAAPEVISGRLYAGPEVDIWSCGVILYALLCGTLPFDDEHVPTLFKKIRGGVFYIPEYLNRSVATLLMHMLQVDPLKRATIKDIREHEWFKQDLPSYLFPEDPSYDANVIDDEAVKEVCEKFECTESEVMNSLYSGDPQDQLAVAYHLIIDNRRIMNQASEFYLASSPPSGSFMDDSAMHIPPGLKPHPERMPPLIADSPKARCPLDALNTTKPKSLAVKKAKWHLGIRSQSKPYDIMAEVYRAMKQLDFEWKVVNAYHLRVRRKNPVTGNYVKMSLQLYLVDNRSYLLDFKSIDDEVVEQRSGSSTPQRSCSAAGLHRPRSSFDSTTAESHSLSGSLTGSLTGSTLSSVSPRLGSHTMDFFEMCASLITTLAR
T2 sequence (O43741 whole entry partner): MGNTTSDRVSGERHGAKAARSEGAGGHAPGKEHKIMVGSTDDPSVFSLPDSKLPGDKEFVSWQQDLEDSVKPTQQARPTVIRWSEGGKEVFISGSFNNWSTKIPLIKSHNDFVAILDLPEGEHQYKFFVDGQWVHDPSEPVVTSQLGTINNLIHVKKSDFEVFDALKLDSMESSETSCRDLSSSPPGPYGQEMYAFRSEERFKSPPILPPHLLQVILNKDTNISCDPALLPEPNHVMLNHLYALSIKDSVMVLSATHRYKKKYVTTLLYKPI
T1 sequence (P54619 whole entry I312G): as the sequence (P54619 whole entry) above, with I312G counted along it
T1 sequence (P54646 whole entry): as the sequence (P54646 whole entry) above
T1 sequence (O43741 whole entry partner): as the sequence (O43741 whole entry partner) above

| SMILES | protective effect of nucleotide against PPM1A in the mutant [1] | Activation (maximal) ([2]; 0.2 mM ATP) | IC50 ([2]; 0.2 mM ATP) [µM] | maximal activation actually reached ([2]; 5 mM ATP) [fold] | Activation (extrapolated maximal) ([2]; 5.0 mM ATP) | IC50 ([2]; 5.0 mM ATP) [µM] | IC50/EC50 ([2]; 5.0 mM ATP) | EC50 ([2]; 5.0 mM ATP, read-out: EC50) [µM] | EC50 ([2]; 5 mM ATP, read-out: EC50 for activation) | IC50/EC50 ([2]; 0.2 mM ATP) | EC50 ([2]; 0.2 mM ATP, read-out: EC50) |
| --- | --- | --- | --- | --- | --- | --- | --- | --- | --- | --- | --- |
| Nc1ncnc2c1ncn2[C@@H]1O[C@H](COP(=O)(O)OP(=O)(O)O)[C@@H](O)[C@H]1O [ADP] | almost completely abolished | did not cause allosteric activation and none | 2600 | 1.6 | 9.9 fold and 9.9 (2.8 -??) fold | 1200 | 1.5 | 785 | 780 µM and 800 µM |  |  |
| Nc1ncnc2c1ncn2[C@@H]1O[C@H](COP(=O)(O)O)[C@@H](O)[C@H]1O [AMP] | almost completely abolished | 2.6 fold and 2.6 (2.5-2.6) fold | 2600 |  | 3.0 fold and 3.0 (2.9-3.1) fold | 52000 | 2700 | 19 |  | 2600 | 0.99 µM and 1 µM |
